Measured values reported in patent US8088791B2, “Antibacterial agents” (Biots Scientific Management Pty Ltd, priority 2006, dated 2012).
In brackets after ≈: the same amount, converted by molar mass.

Assays:
Bacillus subtilis 168CA = test: Minimum Inhibitory Concentration (MIC) testing, broth microdilution, Bacillus subtilis; type: cell-based; details: Bacillus subtilis 168CA; read-out: Bacillus subtilis MICs Activity
Summary of the method: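 Broth microdilution followed NCCLS M7-A5, in rich broth such as Mueller Hinton, inoculum at OD 0.09 diluted 1:100, compounds in 1.6% DMSO before inoculum. After 16–20 h at 37 °C, MIC was the lowest concentration without visible growth. Score A: ≦8 μg/ml, B: 16–64 μg/ml, C: >64 μg/ml.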

[1] = tested on: Staphylococcus aureus ATCC29213; test: Minimum Inhibitory Concentration (MIC) testing, broth microdilution, Staphylococcus aureus; type: cell-based; details: Staphylococcus aureus ATCC29213; read-out: Staphylococcus aureus MICs Activity
Summary of the method: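 Broth microdilution per NCCLS M7-A5 in Mueller Hinton broth, with compound in 1.6% DMSO and inoculum at OD 0.09 diluted 1:100. Plates incubated 16–20 h at 37°C. MIC is the lowest concentration with no visible growth; scored A ≤8, B 16–64, C >64 μg/ml.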

Structure (SMILES): NC(=O)c1c(F)ccc(OCc2nc3cc(-c4cccc(O)c4)ccc3s2)c1F [Example 136, 2,6-Difluoro-3-[5-(3-hydroxy-phenyl)-benzothiazol-2-ylmethoxy]-benzamide]
- MIC (Bacillus subtilis 168CA): < 8 µg/mL
- MIC [1]: < 8 µg/mL

Structure (SMILES): NC(=O)c1c(F)ccc(OCc2csc(-c3ccc(Cl)cc3)n2)c1F [Example 306, 3-[2-(4-Chloro-phenyl)-thiazol-4-ylmethoxy]-2,6-difluoro-benzamide]
- MIC (Bacillus subtilis 168CA): < 8 µg/mL
- MIC [1]: < 8 µg/mL

Structure (SMILES): COc1ccc(-c2nc(COc3ccc(F)c(C(N)=O)c3F)sc2-c2cccc(OC)c2)cc1 [Example 281, 2,6-Difluoro-3-[5-(3-methoxy-phenyl)-4-(4-methoxy-phenyl)-thiazol-2-ylmethoxy]-benzamide]
- MIC (Bacillus subtilis 168CA): < 8 µg/mL
- MIC [1]: < 8 µg/mL

Structure (SMILES): Cc1ccc(COc2ccc(F)c(C(N)=O)c2F)o1 [Example 185, 2,6-Difluoro-3-[(5-methyl-2-furyl)methoxy]benzenecarboxamide]
- MIC (Bacillus subtilis 168CA): > 64 µg/mL
- MIC [1]: > 64 µg/mL

Structure (SMILES): NC(=O)c1c(F)ccc(OCc2nnc(-c3cccs3)o2)c1F [Example 152, 2,6-Difluoro-3-(5-thiophen-2-yl-[1,3,4]oxadiazol-2-ylmethoxy)-benzamide]
- MIC (Bacillus subtilis 168CA): 16 to 64 µg/mL (≈ 47.4 to 190 µM)
- MIC [1]: 16 to 64 µg/mL (≈ 47.4 to 190 µM)

Structure (SMILES): C#CCCCCCCCCCOc1ccc(F)c(C(N)=O)c1 [Example 75, 2-Fluoro-5-(10-undecynyloxy)benzenecarboxamide]
- MIC (Bacillus subtilis 168CA): < 8 µg/mL
- MIC [1]: < 8 µg/mL

Structure (SMILES): NC(=O)c1c(F)ccc(OCc2csc(-c3ccc(F)cc3)n2)c1F [Example 305, 2,6-Difluoro-3-[2-(4-fluoro-phenyl)-thiazol-4-ylmethoxy]-benzamide]
- MIC (Bacillus subtilis 168CA): < 8 µg/mL
- MIC [1]: < 8 µg/mL

Structure (SMILES): NC(=O)c1c(F)ccc(OCc2nc3cc(C4=CCCCC4)ccc3s2)c1F [Example 314]
- MIC (Bacillus subtilis 168CA): < 8 µg/mL
- MIC [1]: 16 to 64 µg/mL (≈ 40 to 160 µM)

Structure (SMILES): CCCc1sc(COc2ccc(F)c(C(N)=O)c2F)nc1-c1ccc(OC)cc1 [Example 118, 2,6-Difluoro-3-[4-(4-methoxy-phenyl)-5-propyl-thiazol-2-ylmethoxy]-benzamide]
- MIC (Bacillus subtilis 168CA): < 8 µg/mL
- MIC [1]: < 8 µg/mL

Structure (SMILES): Cc1ccc2nc(COc3ccc(F)c(C(N)=O)c3F)sc2c1 [Example 229, 2,6-Difluoro-3-[(6-methyl-1,3-benzothiazol-2-yl)methoxy]benzenecarboxamide]
- MIC (Bacillus subtilis 168CA): < 8 µg/mL
- MIC [1]: < 8 µg/mL

Structure (SMILES): NC(=O)c1c(F)ccc(OCc2noc(-c3ccccc3)n2)c1F [Example 239, 2,6-Difluoro-3-[(5-phenyl-1,2,4-oxadiazol-3-yl)methoxy]benzenecarboxamide]
- MIC (Bacillus subtilis 168CA): 16 to 64 µg/mL (≈ 48.3 to 193 µM)
- MIC [1]: 16 to 64 µg/mL (≈ 48.3 to 193 µM)

Structure (SMILES): NC(=O)c1c(F)ccc(OCc2noc(-c3ccsc3)n2)c1F [Example 150, 2,6-Difluoro-3-(5-thiophen-3-yl-[1,2,4]oxadiazol-3-ylmethoxy)-benzamide]
- MIC (Bacillus subtilis 168CA): < 8 µg/mL
- MIC [1]: 16 to 64 µg/mL (≈ 47.4 to 190 µM)

Structure (SMILES): COc1ccc(-c2nc(COc3ccc(F)c(C(N)=O)c3F)c(C)o2)cc1 [Example 296, 2,6-Difluoro-3-[2-(4-methoxy-phenyl)-5-methyl-oxazol-4-ylmethoxy]-benzamide]
- MIC (Bacillus subtilis 168CA): < 8 µg/mL
- MIC [1]: < 8 µg/mL

Structure (SMILES): NC(=O)c1c(F)ccc(OCc2nc(-c3ccccn3)cs2)c1F [Example 115, 2,6-Difluoro-3-(4-pyridin-2-yl-thiazol-2-ylmethoxy)-benzamide]
- MIC (Bacillus subtilis 168CA): 16 to 64 µg/mL (≈ 46.1 to 184 µM)
- MIC [1]: < 8 µg/mL

Structure (SMILES): COc1ccc(-c2nc(COc3ccc(F)c(C(N)=O)c3F)cs2)cc1 [Example 323, 2,6-Difluoro-3-[2-(4-methoxy-phenyl)-thiazol-4-ylmethoxy]-benzamide]
- MIC (Bacillus subtilis 168CA): < 8 µg/mL
- MIC [1]: < 8 µg/mL

Structure (SMILES): NC(=O)c1c(F)ccc(OCc2nc(-c3ccccc3)no2)c1F [Example 240, 2,6-Difluoro-3-[(3-phenyl-1,2,4-oxadiazol-5-yl)methoxy]benzenecarboxamide]
- MIC (Bacillus subtilis 168CA): < 8 µg/mL
- MIC [1]: < 8 µg/mL

Structure (SMILES): NC(=O)c1c(F)ccc(OCc2nccs2)c1F [Example 191, 2,6-Difluoro-3-(1,3-thiazol-2-ylmethoxy)benzenecarboxamide]
- MIC (Bacillus subtilis 168CA): 16 to 64 µg/mL (≈ 59.2 to 237 µM)
- MIC [1]: 16 to 64 µg/mL (≈ 59.2 to 237 µM)

Structure (SMILES): CCCCCCCCCCCOc1ccc(F)c(C(N)=O)c1 [Example 72, 2-Fluoro-5-(undecyloxy)benzenecarboxamide]
- MIC (Bacillus subtilis 168CA): 16 to 64 µg/mL (≈ 51.7 to 207 µM)
- MIC [1]: 16 to 64 µg/mL (≈ 51.7 to 207 µM)

Structure (SMILES): Cc1cccc(COc2ccc(F)c(C(N)=O)c2F)n1 [Example 197, 2,6-Difluoro-3-[(6-methyl-2-pyridinyl)methoxy]benzenecarboxamide]
- MIC (Bacillus subtilis 168CA): 16 to 64 µg/mL (≈ 57.5 to 230 µM)
- MIC [1]: 16 to 64 µg/mL (≈ 57.5 to 230 µM)

Structure (SMILES): CC(=O)OCCCCCOc1cccc(C(N)=O)c1 [Example 18, 5-[3-(Aminocarbonyl)phenoxy]pentyl acetate]
- MIC (Bacillus subtilis 168CA): > 64 µg/mL
- MIC [1]: > 64 µg/mL

Structure (SMILES): COc1ccc2nc(COc3ccc(F)c(C(N)=O)c3F)ccc2c1 [Example 109, 3-(6-Methoxyquinolin-2-ylmethoxy)-2,6-difluoro-benzamide]
- MIC (Bacillus subtilis 168CA): < 8 µg/mL
- MIC [1]: 16 to 64 µg/mL (≈ 46.5 to 186 µM)

Structure (SMILES): CCCCCCCCCOc1ccc(F)c(C(N)=O)c1F [Example 82, 2,6-Difluoro-3-(nonyloxy)benzenecarboxamide]
- MIC (Bacillus subtilis 168CA): < 8 µg/mL
- MIC [1]: < 8 µg/mL

Structure (SMILES): COc1ccc(-c2nc(COc3ccc(F)c(C(N)=O)c3F)sc2-c2ccccc2OC)cc1 [Example 280, 2,6-Difluoro-3-[5-(2-methoxy-phenyl)-4-(4-methoxy-phenyl)-thiazol-2-ylmethoxy]-benzamide]
- MIC (Bacillus subtilis 168CA): < 8 µg/mL
- MIC [1]: < 8 µg/mL

Structure (SMILES): NC(=O)c1c(F)ccc(OCc2nc3cc(Oc4ccccc4)ccc3s2)c1F [Example 327, 2,6-Difluoro-3-(5-phenoxy-benzothiazol-2-ylmethoxy)-benzamide]
- MIC (Bacillus subtilis 168CA): < 8 µg/mL
- MIC [1]: < 8 µg/mL

Structure (SMILES): NC(=O)c1c(F)ccc(OCc2cc(-c3ccccc3)on2)c1F [Example 163, 2,6-Difluoro-3-(5-phenyl-isoxazol-3-ylmethoxy)-benzamide]
- MIC (Bacillus subtilis 168CA): < 8 µg/mL
- MIC [1]: < 8 µg/mL

Structure (SMILES): NC(=O)c1cccc(OCCCCO)c1 [Example 42, 3-(4-Hydroxybutoxy)benzenecarboxamide]
- MIC (Bacillus subtilis 168CA): 16 to 64 µg/mL (≈ 76.5 to 306 µM)
- MIC [1]: 16 to 64 µg/mL (≈ 76.5 to 306 µM)

Structure (SMILES): NC(=O)c1c(F)ccc(OCc2cccs2)c1F [Example 186, 2,6-Difluoro-3-(2-thienylmethoxy)benzenecarboxamide]
- MIC (Bacillus subtilis 168CA): < 8 µg/mL
- MIC [1]: 16 to 64 µg/mL (≈ 59.4 to 238 µM)

Structure (SMILES): Cc1ccc2nc(COc3ccc(F)c(C(N)=O)c3F)oc2c1 [Example 211, 2,6-Difluoro-3-[(6-methyl-1,3-benzoxazol-2-yl)methoxy]benzenecarboxamide]
- MIC (Bacillus subtilis 168CA): < 8 µg/mL
- MIC [1]: 16 to 64 µg/mL (≈ 50.3 to 201 µM)

Structure (SMILES): NC(=O)c1c(F)ccc(OCc2nc3cc(F)ccc3s2)c1F [Example 216, 2,6-Difluoro-3-[(5-fluoro-1,3-benzothiazol-2-yl)methoxy]benzenecarboxamide]
- MIC (Bacillus subtilis 168CA): < 8 µg/mL
- MIC [1]: < 8 µg/mL

Structure (SMILES): NC(=O)c1c(F)ccc(OCc2nc3cc(Br)ccc3s2)c1F [Example 123, 3-(5-Bromo-benzothiazol-2-ylmethoxy)-2,6-difluoro-benzamide]
- MIC (Bacillus subtilis 168CA): < 8 µg/mL
- MIC [1]: < 8 µg/mL

Structure (SMILES): NC(=O)c1c(F)ccc(OCc2cccc(F)c2)c1F [Example 101, 2,6-Difluoro-3-(3-fluoro-benzyloxy)-benzamide]
- MIC (Bacillus subtilis 168CA): 16 to 64 µg/mL (≈ 56.9 to 228 µM)
- MIC [1]: 16 to 64 µg/mL (≈ 56.9 to 228 µM)

Structure (SMILES): COc1ccc(-c2nc(COc3ccc(F)c(C(N)=O)c3F)sc2-c2ccccc2N)cc1 [Example 283, 2,6-Difluoro-3-[5-(2-amino-phenyl)-4-(4-methoxy-phenyl)-thiazol-2-ylmethoxy]-benzamide]
- MIC (Bacillus subtilis 168CA): < 8 µg/mL
- MIC [1]: < 8 µg/mL

Structure (SMILES): CCCCOC(=O)COc1cccc(C(N)=O)c1F [Example 176, Butyl 2-[3-(aminocarbonyl)-2-fluorophenoxy]acetate]
- MIC (Bacillus subtilis 168CA): < 8 µg/mL
- MIC [1]: 16 to 64 µg/mL (≈ 59.4 to 238 µM)

Structure (SMILES): COc1ccc2ccc(COc3ccc(F)c(C(N)=O)c3F)nc2c1 [Example 98, 2,6-Difluoro-3-(7-methoxy-quinolin-2-ylmethoxy)-benzamide]
- MIC (Bacillus subtilis 168CA): < 8 µg/mL
- MIC [1]: < 8 µg/mL

Structure (SMILES): NC(=O)c1c(F)ccc(OCc2nc3cc(-c4ccccc4O)ccc3s2)c1F [Example 157, 2,6-Difluoro-3-[5-(2-hydroxy-phenyl)-benzothiazol-2-ylmethoxy]-benzamide]
- MIC (Bacillus subtilis 168CA): < 8 µg/mL
- MIC [1]: < 8 µg/mL

Structure (SMILES): Cc1ccc(OCc2noc(COc3ccc(F)c(C(N)=O)c3F)n2)cc1 [Example 263, 2,6-Difluoro-3-(3-[(4-methylphenoxy)methyl]-1,2,4-oxadiazol-5-ylmethoxy)benzenecarboxamide]
- MIC (Bacillus subtilis 168CA): < 8 µg/mL
- MIC [1]: 16 to 64 µg/mL (≈ 42.6 to 171 µM)

Structure (SMILES): CCCC/C=C/CCOc1cccc(C(N)=O)c1 [Example 40, 3-[(E)-3-Octenyloxy]benzenecarboxamide]
- MIC (Bacillus subtilis 168CA): < 8 µg/mL
- MIC [1]: < 8 µg/mL

Structure (SMILES): NC(=O)c1cccc(OCn2cccn2)c1 [Example 168, 3-(Pyrazol-1-ylmethoxy)-benzamide]
- MIC (Bacillus subtilis 168CA): > 64 µg/mL
- MIC [1]: > 64 µg/mL

Structure (SMILES): Cc1cnc(COc2ccc(F)c(C(N)=O)c2F)s1 [Example 192, 2,6-Difluoro-3-[(5-methyl-1,3-thiazol-2-yl)methoxy]benzenecarboxamide]
- MIC (Bacillus subtilis 168CA): > 64 µg/mL
- MIC [1]: > 64 µg/mL

Structure (SMILES): NC(=O)c1c(F)ccc(OCc2csc(-c3ccc(O)cc3)n2)c1F [Example 304, 2,6-Difluoro-3-[2-(4-hydroxy-phenyl)-thiazol-4-ylmethoxy]-benzamide]
- MIC (Bacillus subtilis 168CA): < 8 µg/mL
- MIC [1]: < 8 µg/mL

Structure (SMILES): NC(=O)c1c(F)ccc(OCc2cccc(-n3cccc3)c2)c1F [Example 161, 2,6-Difluoro-3-(3-pyrrol-1-yl-benzyloxy)-benzamide]
- MIC (Bacillus subtilis 168CA): < 8 µg/mL
- MIC [1]: < 8 µg/mL

Structure (SMILES): CCOc1cccc(COc2ccc(F)c(C(N)=O)c2F)c1 [Example 196, 3-[(3-Ethoxybenzyl)oxy]-2,6-difluorobenzenecarboxamide]
- MIC (Bacillus subtilis 168CA): < 8 µg/mL
- MIC [1]: 16 to 64 µg/mL (≈ 52.1 to 208 µM)

Structure (SMILES): NC(=O)c1c(F)ccc(OCc2ccoc2)c1F [Example 184, 2,6-Difluoro-3-(3-furylmethoxy)benzenecarboxamide]
- MIC (Bacillus subtilis 168CA): 16 to 64 µg/mL (≈ 63.2 to 253 µM)
- MIC [1]: 16 to 64 µg/mL (≈ 63.2 to 253 µM)

Structure (SMILES): NC(=O)c1cccc(OCCCCCCc2ccccc2)c1 [Example 36, 3-[(6-Phenylhexyl)oxy]benzenecarboxamide]
- MIC (Bacillus subtilis 168CA): < 8 µg/mL
- MIC [1]: > 64 µg/mL
